Laboratory results published in PubChem BioAssay AID1595 (NINDS Approved Drug Screening Program, 2009).
Results filed as inconclusive are left out.

What follows are molecules tested on Drosophila SCA1 polyglutamine model, toxicity suppression (assay: Polyglutamine toxicity reduction dose response, whole organism Drosophila SCA1 model (AID 1595)).

Row | SMILES | EC50
1 | N#C/C(=C\c1ccc(O)cc1)C(=O)O | 50 nM
2 | CC(=O)OCC(=O)[C@H]1CCC2C3CCC4=CC(=O)CC[C@]4(C)C3CC[C@@]21C (some centres undefined) | 3000 nM
3 | CC(N)CCCC(C)(C)O (centres undefined) | 50 nM
4 | CCCCCCCCCCCCCCCC(=O)OC/C=C(C)/C=C/C=C(C)/C=C/C1=C(C)CCCC1(C)C | 275 nM
5 | C[C@@H]1CC2C3CCC4=CC(=O)C=C[C@]4(C)[C@@]3(F)[C@@H](O)C[C@]2(C)[C@@]1(O)C(=O)COP(=O)(O)O (some centres undefined) | 750 nM
6 | C=C1C2CC[C@H]3[C@]4(C)C[C@H](OC5OC(CO)C(OS(=O)(=O)O)C(OS(=O)(=O)O)C5OC(=O)CC(C)C)C[C@@H](C(=O)O)[C@H]4CC[C@]3(C2)[C@H]1O (some centres undefined) | 225 nM
7 | NC(Cc1cc(I)c(Oc2ccc(O)c(I)c2)c(I)c1)C(=O)O (centres undefined) | 5000 nM
8 | C[C@@H]1O[C@@H](O[C@H]2[C@H](Oc3cc(O)c4c(c3)O[C@H](c3ccc(O)cc3)CC4=O)O[C@H](CO)[C@@H](O)[C@@H]2O)[C@H](O)[C@H](O)[C@H]1O | 5000 nM
9 | OCC(S)CS (centres undefined) | 300 nM
10 | C[N+](C)(C)CC(=O)[O-] | 3000 nM
11 | CN1CCOC(c2ccccc2)c2ccccc2C1 (centres undefined) | 50 nM
12 | Cc1cc(C(C)(C)C)cc(C)c1CC1=NCCN1 | 250 nM
13 | C[N+](C)(C)CCOC(N)=O | 3000 nM
14 | NS(=O)(=O)c1cc(C2(O)NC(=O)c3ccccc32)ccc1Cl (centres undefined) | 5000 nM
